Measurements reported in US8168651B2, “Protein kinase modulators” (Cylene Pharmaceuticals, Inc., priority 2008, dated 2012).
Read-outs that look alike come from different tables or passages of the source.

Key:
[1] = system: K-562; assay: Cell proliferation modulatory activity, K-562; assay type: cell-based; conditions: Homo sapiens, K562
[2] = system: HCT-116 human colorectal carcinoma cells; assay: Cell-proliferation assay using Alamar Blue dye; assay type: cell-based; conditions: Homo sapiens;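 also: cells exposed to compound for about 4 days, then Alamar Blue added and dye fluorescence read after about 4 h, compared with medium-only control wells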
[3] = molecular target: recombinant human PIM1 (Homo sapiens (Human), UniProt P11309); assay: PIM-1 kinase activity in cell-free in vitro assay; assay type: biochemical; conditions: for inhibition at 0.5 µM: 500 nM compound, read-out: PIM-1: % inh 500 nM
[4] = system: Jurkat; assay: Cell proliferation modulatory activity, Jurkat; assay type: cell-based; conditions: Homo sapiens
[5] = system: MV-4-11; assay: Cell proliferation modulatory activity, MV-4-11; assay type: cell-based; conditions: Homo sapiens, MV4-11
[6] = molecular target: recombinant human CK2 (Homo sapiens (Human), UniProt P68400); assay: CK2 assay (cell-free, 33P-ATP filter plate); assay type: biochemical; conditions: cell-free assay; for IC50: 15 um ATP, read-out: CK2 (15 um ATP) IC50; for inhibition at 0.5 µM: 500 nM compound, read-out: CK2: % inh 500 nM
[7] = system: K-562; assay: Cell proliferation modulatory activity, K-562; assay type: cell-based; conditions: Homo sapiens, K562; K-562 cells; read-out: K-562 (uM), cell proliferation modulatory activity
[8] = system: MV-4-11; assay: Cell proliferation modulatory activity, MV-4-11; assay type: cell-based; conditions: Homo sapiens, MV4-11; MV-4-11 cells; read-out: MV-4-11 (uM), cell proliferation modulatory activity
[9] = molecular target: PIM2 (Homo sapiens (Human), UniProt Q9P1W9); assay: PIM2 IC50; assay type: biochemical; conditions: Table 45
[10] = HCT-116, read-out: HCT-116 (uM), cell proliferation modulatory activity, HCT-116, second HCT-116 column (c8)
[11] = HCT-116, HCT-116, second HCT-116 column (c8), read-out: HCT-116 (uM), cell proliferation modulatory activity
[12] = HCT-116, second of two HCT-116 columns (c8), read-out: HCT-116 (uM), cell proliferation modulatory activity

Chain of recombinant human PIM1 (P11309 whole entry): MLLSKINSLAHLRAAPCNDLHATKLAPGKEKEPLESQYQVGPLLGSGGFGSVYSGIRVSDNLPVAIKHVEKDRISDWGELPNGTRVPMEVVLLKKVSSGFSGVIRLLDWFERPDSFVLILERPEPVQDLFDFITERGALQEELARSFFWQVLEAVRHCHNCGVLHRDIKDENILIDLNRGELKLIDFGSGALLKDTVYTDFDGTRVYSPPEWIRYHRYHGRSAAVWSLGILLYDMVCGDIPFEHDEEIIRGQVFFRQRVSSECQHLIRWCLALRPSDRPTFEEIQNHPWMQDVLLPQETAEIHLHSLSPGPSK
Chain of PIM2 (Q9P1W9 whole entry): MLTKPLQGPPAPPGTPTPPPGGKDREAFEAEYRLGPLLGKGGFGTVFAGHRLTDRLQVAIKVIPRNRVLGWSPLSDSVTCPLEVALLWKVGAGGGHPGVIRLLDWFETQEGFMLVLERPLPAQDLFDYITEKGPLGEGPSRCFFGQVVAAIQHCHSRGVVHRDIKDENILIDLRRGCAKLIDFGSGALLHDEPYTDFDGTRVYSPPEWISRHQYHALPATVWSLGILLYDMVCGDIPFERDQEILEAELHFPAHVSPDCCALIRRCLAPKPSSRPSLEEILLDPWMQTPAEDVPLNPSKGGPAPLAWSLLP
Chain of recombinant human CK2 (P68400 whole entry): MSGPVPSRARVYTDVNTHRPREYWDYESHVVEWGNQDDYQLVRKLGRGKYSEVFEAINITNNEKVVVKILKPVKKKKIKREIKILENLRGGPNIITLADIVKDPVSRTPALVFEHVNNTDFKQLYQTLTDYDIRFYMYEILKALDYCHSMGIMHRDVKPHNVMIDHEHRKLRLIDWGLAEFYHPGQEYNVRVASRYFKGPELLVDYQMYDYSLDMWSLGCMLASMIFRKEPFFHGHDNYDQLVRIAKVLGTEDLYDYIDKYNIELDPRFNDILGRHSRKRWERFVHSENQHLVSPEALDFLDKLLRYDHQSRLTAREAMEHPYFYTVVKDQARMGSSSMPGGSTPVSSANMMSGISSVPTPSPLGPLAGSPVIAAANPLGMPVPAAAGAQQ
Chain of recombinant human CK2 (P67870 whole entry partner): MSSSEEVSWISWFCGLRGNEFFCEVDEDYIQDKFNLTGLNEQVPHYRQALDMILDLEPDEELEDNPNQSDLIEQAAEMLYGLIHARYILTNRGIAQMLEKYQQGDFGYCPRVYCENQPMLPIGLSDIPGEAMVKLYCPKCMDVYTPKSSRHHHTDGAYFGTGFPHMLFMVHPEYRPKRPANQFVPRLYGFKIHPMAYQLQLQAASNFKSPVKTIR

| Structure (SMILES) | IC50 [1] [µM] | inhibition at 0.5 µM ([3]; cell-free assay) [%] | IC50 [4] [µM] | IC50 [5] [µM] | IC50 [2, 11] [µM] | also measured |
| --- | --- | --- | --- | --- | --- | --- |
| O=C(O)c1ccc2c(c1)nc(Nc1ccccc1)c1nc(NCCO)ncc12 | > 10 | 45.6 |  | > 10 |  |  |
| O=C(O)c1ccc2c(c1)nc(Nc1ccccc1)c1nc(NCCN3CCOCC3)ncc12 | 1.16 | 30.6 | 5.7 | 0.358 |  |  |
| C#Cc1cccc(Nc2nc3cc(C(=O)O)ccc3c3cnc(NC4CCNCC4)nc23)c1 | > 10 | 29 |  | 0.237 |  |  |
| O=C(O)c1ccc2c(c1)nc(Nc1ccc(Cl)c(C(F)(F)F)c1)c1ccncc12 | > 10 | 73.6 | 3.05 | > 10 |  | IC50 [2, 10]: 3.99 µM; IC50 ([3]; cell-free assay): 0.408 µM |
| CNc1ncc2c(n1)c(Nc1ccc(F)c(Cl)c1)nc1cc(C(=O)O)ccc12 | > 10 | 18.6 | 1.24 | 0.655 |  |  |
| C#Cc1cccc(Nc2nc3cc(C(=O)O)ccc3c3cnc(NCCOCC)nc23)c1 | > 10 | 12.1 | 1.13 | 0.141 |  |  |
| Cc1cccc(Nc2nc3cc(C(=O)O)ccc3c3cnccc23)c1 | > 10 | 86.7 | 3.45 | 0.593 |  | IC50 ([3]; cell-free assay): 0.177 µM |
| O=C(O)c1ccc2c(c1)nc(Nc1cccc(C(F)(F)F)c1)c1ccncc12 | > 10 | 88.8 | 3.15 | 0.354 |  | IC50 [2, 10]: 5.14 µM; IC50 ([3]; cell-free assay): 0.16 µM |
| CC(C)C(CO)Nc1ncc2c(n1)c(NC1CC1)nc1cc(C(=O)O)ccc12 (stereo not shown) |  | -8.31 | 44.7 |  | > 10 | IC50 [6]: 0.167 µM |
| COCCNC(=O)c1ccc2c(c1)nc(NC1CC1)c1nc(NC3CC3)ncc12 |  | -16.1 | 1.64 |  | 3.87 | IC50 [6]: > 0.75 µM |
| O=C(NCCN1CCOCC1)c1ccc2c(c1)nc(NC1CC1)c1nc(NC3CC3)ncc12 |  | 2.65 | 1.43 |  | > 10 | IC50 [6]: > 0.75 µM |
| O=C(O)c1ccc2c(c1)nc(NC1CC1)c1nc(Nc3ccc(F)cc3F)ncc12 | > 10 |  |  | 2.29 | > 10 |  |
| O=C(O)c1ccc2c(c1)nc(NC1CC1)c1nc(Nc3ccc(F)c(F)c3)ncc12 | > 10 | 14.1 |  | 1.86 | > 10 | inhibition at 0.5 µM [6]: 96.3% |
| Cc1cnc(CNC(=O)c2ccc3c(c2)nc(N2CCN(C)CC2)c2ccsc23)cn1 | > 10 | 37.3 |  | > 10 | > 10 | inhibition at 0.5 µM [6]: -15% |
| O=C(O)c1ccc2c(c1)nc(NCc1cccc3ccccc13)c1ccncc12 | > 10 | 15.6 |  |  | > 10 |  |
| Cc1cccc(N2CCN(c3nc4cc(C(=O)O)ccc4c4cnccc34)CC2)c1 | > 10 | 33.7 |  |  | > 10 |  |
| O=C(O)c1ccc2c(c1)nc(N1CCC(N3CCOCC3)CC1)c1ccncc12 | > 10 | 20.7 |  | > 10 | > 10 | IC50 ([3]; cell-free assay): 0.31 µM; inhibition at 0.5 µM [6]: 90.5% |
| Fc1cc(Cl)cc(Nc2nc3cc(-c4nnn[nH]4)ccc3c3ccsc23)c1 |  | 22.9 |  |  |  | IC50 [7]: > 10 µM; IC50 [2, 12]: > 10 µM; inhibition at 0.5 µM [6]: 45.4% |

| Structure (SMILES) | IC50 [1] [µM] | inhibition at 0.5 µM ([3]; cell-free assay) [%] | IC50 [4] [µM] | IC50 [5] [µM] | IC50 [2, 11] [µM] | also measured |
| --- | --- | --- | --- | --- | --- | --- |
| FC(F)(F)c1cccc(Nc2nc3cc(-c4nnn[nH]4)ccc3c3ccsc23)c1 |  | 10.8 |  |  |  | IC50 [7]: > 10 µM; IC50 [2, 12]: > 10 µM; IC50 [8]: 1.1 µM; inhibition at 0.5 µM [6]: 17.4% |
| Clc1ccc(Nc2nc3cc(-c4nnn[nH]4)ccc3c3ccsc23)cc1 |  | 40.4 |  |  |  | IC50 [7]: > 10 µM; IC50 [2, 12]: > 10 µM; IC50 [8]: > 10 µM; inhibition at 0.5 µM [6]: 23.9% |
| Fc1ccc(Nc2nc3cc(-c4nnn[nH]4)ccc3c3ccsc23)cc1 |  | 54.7 |  |  |  | IC50 [7]: > 10 µM; IC50 [2, 12]: > 10 µM; IC50 ([3]; cell-free assay): 0.738 µM; IC50 [8]: > 10 µM; inhibition at 0.5 µM [6]: 30.3% |
| c1cc(-c2nc[nH]n2)c2nc(NCc3ccncc3)c3ccncc3c2c1 |  |  |  |  |  | IC50 [9]: < 1 µM; IC50 ([3]; Table 45): < 0.5 µM |
| c1ccc(CNc2nc3c(-c4nc[nH]n4)cccc3c3cnccc23)nc1 |  |  |  |  |  | IC50 [9]: < 0.5 µM; IC50 ([3]; Table 45): < 0.5 µM |
| CN1CCC(CNc2nc3c(-c4nnc[nH]4)cccc3c3cnccc23)CC1 |  |  |  |  |  | IC50 [9]: > 1.1 µM; IC50 ([3]; Table 45): < 0.5 µM |
| c1cncc(CNc2nc3c(-c4nc[nH]n4)cccc3c3cnccc23)c1 |  |  |  |  |  | IC50 [9]: > 1.1 µM; IC50 ([3]; Table 45): < 0.5 µM |
| CN1CCN(c2nc3c(-c4nc[nH]n4)cccc3c3cnccc23)CC1 |  |  |  |  |  | IC50 [9]: > 1.1 µM; IC50 ([3]; Table 45): < 1 µM |
| NC(=O)c1cc(F)cc2c1nc(Nc1cccc(Cl)c1)c1ccncc12 |  |  |  |  |  | IC50 [9]: > 1.1 µM; IC50 ([3]; Table 45): < 1 µM |
| c1cc(-c2nc[nH]n2)c2nc(NCCN3CCOCC3)c3ccncc3c2c1 |  |  |  |  |  | IC50 [9]: > 1.1 µM; IC50 ([3]; Table 45): < 5 µM |
| CN(C)CCNc1nc2c(-c3nc[nH]n3)cccc2c2cnccc12 |  |  |  |  |  | IC50 [9]: > 1.1 µM; IC50 ([3]; Table 45): < 5 µM |
| CCN1CCCC1CNc1nc2c(-c3nc[nH]n3)cccc2c2cnccc12 (stereo not shown) |  |  |  |  |  | IC50 [9]: > 1.1 µM; IC50 ([3]; Table 45): > 1.1 µM |
| O=C(O)c1cc(F)cc2c1nc(Nc1cccc(Cl)c1)c1ccncc12 |  |  |  |  |  | IC50 [9]: > 1.1 µM; IC50 ([3]; Table 45): > 1.1 µM |
| O=C(O)c1cc(F)cc2c1nc(Nc1cccc(Cl)c1)c1cnccc12 |  |  |  |  |  | IC50 [9]: > 1.1 µM; IC50 ([3]; Table 45): > 1.1 µM |
| C#Cc1cccc(Nc2nc3cc(C(=O)O)ccc3c3cnc(NCC4CC4)nc23)c1 [drawing 1606] | 0.25 | 3.08 | 0.424 | 0.128 |  | IC50 [2, 10]: > 10 µM |
| Fc1cc(-c2nnc[nH]2)c2nc(Nc3cccc(Cl)c3)c3ccncc3c2c1 [drawing 2259] |  |  |  |  |  | IC50 [9]: < 1 µM; IC50 ([3]; Table 45): < 1 µM |
| Fc1cc(-c2nnc[nH]2)c2nc(Nc3cccc(Cl)c3)c3ccncc3c2c1 [drawing 2269] |  |  |  |  |  | IC50 [9]: > 1.1 µM; IC50 ([3]; Table 45): > 1.1 µM |

More lines, main results first:

| IC50 [1] [µM] | inhibition at 0.5 µM ([3]; cell-free assay) [%] | IC50 [4] [µM] | IC50 [5] [µM] | IC50 [2, 11] [µM] | Structure (SMILES) | also measured |
| --- | --- | --- | --- | --- | --- | --- |
| 0.494 | 18.4 | 2.42 | 0.195 |  | O=C(O)c1ccc2c(c1)nc(Nc1ccccc1)c1nc(NC3CC3)ncc12 | IC50 [2, 10]: 1.94 µM |
| 0.158 |  | 1.29 | 0.257 |  | O=C(O)c1ccc2c(c1)nc(Nc1cccc(Cl)c1)c1nc(NC3CC3)ncc12 | IC50 [2, 10]: 7.82 µM |
| > 10 | 6.63 | 1.54 | > 10 |  | O=C(O)c1ccc2c(c1)nc(Nc1ccc(F)c(Cl)c1)c1nc(NC3CC3)ncc12 |  |
|  | -10.8 | 0.504 |  | 1.33 | NC(=O)c1ccc2c(c1)nc(NC1CC1)c1nc(NC3CC3)ncc12 | IC50 [6]: 0.135 µM |
|  | -16.2 | 0.618 |  | 1.08 | CNC(=O)c1ccc2c(c1)nc(NC1CC1)c1nc(NC3CC3)ncc12 | IC50 [6]: > 0.75 µM |
|  | -17.1 | 1.95 |  | 3.07 | O=C(NCc1ccccn1)c1ccc2c(c1)nc(NC1CC1)c1nc(NC3CC3)ncc12 | IC50 [6]: > 0.75 µM |
|  | -5.17 | 0.989 |  | 3.16 | O=C(Nc1ccccc1)c1ccc2c(c1)nc(NC1CC1)c1nc(NC3CC3)ncc12 | IC50 [6]: > 0.75 µM |
|  | 3.79 | 2.36 |  | > 10 | NCCNC(=O)c1ccc2c(c1)nc(NC1CC1)c1nc(NC3CC3)ncc12 | IC50 [6]: > 0.75 µM |
|  | 1.62 | 0.583 |  | 1.12 | CN(C)C(=O)c1ccc2c(c1)nc(NC1CC1)c1nc(NC3CC3)ncc12 | IC50 [6]: > 0.75 µM |
| 9.79 | -27.8 | 1.18 | 4.62 | 0.545 | C#Cc1cccc(Nc2nc3cc(C(=O)N(C)C)ccc3c3cncnc23)c1 |  |
| 1.34 | 2.81 |  |  | > 10 | COC(=O)c1ccc2c(c1)nc(NC1CC1)c1nc(C#N)ncc12 |  |
| > 10 | -8.95 |  | > 10 | > 10 | O=C(O)c1ccc2c(c1)nc(NCCc1ccccn1)c1ccncc12 | inhibition at 0.5 µM [6]: 96.1% |
| > 10 | 14.3 |  | > 10 | > 10 | O=C(O)c1ccc2c(c1)nc(NCc1ccccn1)c1ccncc12 | inhibition at 0.5 µM [6]: 96.6% |
| > 10 | 9.85 |  | > 10 | > 10 | COc1ccc(CCNc2nc3cc(C(=O)O)ccc3c3cnccc23)cc1OC | inhibition at 0.5 µM [6]: 99% |
| > 10 | 92.3 | 15.7 | 0.985 | > 10 | Cc1ccccc1Nc1nc2cc(C(=O)O)ccc2c2cnccc12 | IC50 ([3]; cell-free assay): 0.158 µM |
|  | 29.1 |  |  |  | Fc1ccc(Nc2nc3cc(-c4nnn[nH]4)ccc3c3ccsc23)cc1Cl | IC50 [7]: > 10 µM; IC50 [2, 12]: > 10 µM; IC50 [8]: 0.721 µM; inhibition at 0.5 µM [6]: 37.6% |
| > 10 | 1.48 | 2.04 | 0.284 |  | C#Cc1cccc(Nc2nc3cc(C(=O)O)ccc3c3cnc(NCC4CCCO4)nc23)c1 (stereo not shown) [drawing 1605] | IC50 [2, 10]: > 10 µM |
